The target in one assay is T1, OnOr6/2 (Ostrinia nubilalis, UniProt D3J5H9).
T1 construct: gene OR6; full-length ORF (421-425 residues for the set) in pGEMHE; cRNA co-injected with OnOr2 in Xenopus oocytes; dimer with Or83b ortholog; with Odorant receptor coreceptor
T1 sequence (D3J5H9 1-421): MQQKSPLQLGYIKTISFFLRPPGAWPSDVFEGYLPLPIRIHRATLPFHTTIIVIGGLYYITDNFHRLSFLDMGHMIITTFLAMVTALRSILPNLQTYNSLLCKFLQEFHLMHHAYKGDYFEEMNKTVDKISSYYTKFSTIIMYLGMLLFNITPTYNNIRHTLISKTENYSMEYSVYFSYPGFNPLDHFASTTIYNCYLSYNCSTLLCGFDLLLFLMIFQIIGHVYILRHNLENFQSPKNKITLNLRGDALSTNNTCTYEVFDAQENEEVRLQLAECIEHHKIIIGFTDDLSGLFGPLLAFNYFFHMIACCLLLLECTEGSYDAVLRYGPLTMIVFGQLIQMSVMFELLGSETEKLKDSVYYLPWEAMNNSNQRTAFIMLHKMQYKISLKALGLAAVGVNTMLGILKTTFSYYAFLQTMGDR
T1 sequence (D3J5H5 1-473 partner): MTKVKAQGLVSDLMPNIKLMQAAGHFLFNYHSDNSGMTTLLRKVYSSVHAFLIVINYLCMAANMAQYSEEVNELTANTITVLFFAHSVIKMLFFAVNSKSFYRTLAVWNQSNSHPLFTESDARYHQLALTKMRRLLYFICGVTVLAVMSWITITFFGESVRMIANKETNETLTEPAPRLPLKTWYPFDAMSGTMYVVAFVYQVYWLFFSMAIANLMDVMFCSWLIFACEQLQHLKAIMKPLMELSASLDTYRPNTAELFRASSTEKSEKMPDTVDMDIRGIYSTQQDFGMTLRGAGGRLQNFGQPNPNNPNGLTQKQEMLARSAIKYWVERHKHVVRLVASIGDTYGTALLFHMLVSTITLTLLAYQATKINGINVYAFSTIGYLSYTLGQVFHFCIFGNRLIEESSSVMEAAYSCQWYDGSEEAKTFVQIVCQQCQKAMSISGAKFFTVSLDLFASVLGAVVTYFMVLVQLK
As to the kind of experiment: two-electrode voltage clamp, Xenopus oocytes. Format: cell-based. Conditions: read-out: EC50 (μM ± SEM). The source says:
two-electrode voltage clamp, Xenopus oocytes on OnOr6/2
With `CC/C=C\CCCCCCCCCCOC(C)=O` [Z11, Z11–14:OAc], the EC50 was found to be 0.86 ± 0.27 µM.

In another assay the target is T2, OnOr1/2 (Ostrinia nubilalis, UniProt D3J5H4).
T2 construct: gene OR1; full-length ORF (421-425 residues for the set) in pGEMHE; cRNA co-injected with OnOr2 in Xenopus oocytes; dimer with Or83b ortholog; with Odorant receptor coreceptor
T2 sequence (D3J5H4 1-424): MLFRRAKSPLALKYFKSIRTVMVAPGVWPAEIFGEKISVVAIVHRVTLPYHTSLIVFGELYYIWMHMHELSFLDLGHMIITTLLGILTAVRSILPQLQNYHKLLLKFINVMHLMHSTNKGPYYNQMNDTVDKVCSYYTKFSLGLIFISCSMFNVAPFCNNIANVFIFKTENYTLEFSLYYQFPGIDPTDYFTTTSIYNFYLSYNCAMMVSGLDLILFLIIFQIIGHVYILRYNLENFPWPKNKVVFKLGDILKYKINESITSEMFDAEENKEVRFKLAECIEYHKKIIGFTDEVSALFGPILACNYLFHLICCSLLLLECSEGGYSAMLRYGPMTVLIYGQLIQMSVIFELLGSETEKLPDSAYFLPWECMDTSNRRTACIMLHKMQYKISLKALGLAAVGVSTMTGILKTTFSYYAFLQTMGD
T2 sequence (D3J5H5 1-473 partner): T1 sequence (D3J5H5 1-473 partner)
As to the kind of experiment: two-electrode voltage clamp, Xenopus oocytes. It counts as cell-based. Conditions: read-out: EC50 (μM ± SEM). The source says:
two-electrode voltage clamp, Xenopus oocytes on OnOr1/2
Consider `CC/C=C/CCCCCCCCCCOC(C)=O` [E11, E11–14:OAc], for which the concentration giving a half-maximal response (EC50) was found to be 1.92 ± 0.2 µM.
Turning to `CCCC/C=C\CCCCCCCCOC(C)=O` [Z9, Z9–14:OAc], the concentration for a half-maximal effect (EC50) stood at 1.54 ± 0.33 µM.
On the same count and under the same terms, to `C/C=C\CCCCCCCCCCCOC(C)=O` [Z12, Z12–14:OAc] belongs 2.73 ± 0.24 µM.
In the case of `CC/C=C\CCCCCCCCCCOC(C)=O` [Z11, Z11–14:OAc], the concentration giving a half-maximal response (EC50) came out at 0.34 ± 0.05 µM.
Regarding `C/C=C/CCCCCCCCCCCOC(C)=O` [E12, E12–14:OAc], the concentration for a half-maximal effect (EC50) turned out to be 0.26 ± 0.05 µM.

Source of the values: PMC2801615, “Sex Pheromone Receptor Specificity in the European Corn Borer Moth, Ostrinia nubilalis” (PLoS ONE, 2010).
